Test results from a compilation of properties of binary mixtures (doi:10.1007/s10953-018-0729-9).

Test: xn = mol fraction of the nth substance listed
Conditions: 101.3 kPa

O=C1CCCN1 + CCCC[n+]1ccn(C)c1.F[P-](F)(F)(F)(F)F
speed of sound (303.15 K, x2 = 0): 1618 m/s | speed of sound (303.15 K, x2 = 0.0494): 1584.7 m/s | speed of sound (303.15 K, x2 = 0.1025): 1575.2 m/s | speed of sound (303.15 K, x2 = 0.1503): 1566.5 m/s | speed of sound (303.15 K, x2 = 0.2215): 1553.8 m/s | speed of sound (303.15 K, x2 = 0.3376): 1532.9 m/s | speed of sound (303.15 K, x2 = 0.4502): 1512.7 m/s | speed of sound (303.15 K, x2 = 0.5654): 1492 m/s | speed of sound (303.15 K, x2 = 0.6527): 1476.3 m/s | speed of sound (303.15 K, x2 = 0.8295): 1446.5 m/s | speed of sound (303.15 K, x2 = 0.8622): 1442.6 m/s | speed of sound (303.15 K, x2 = 0.9019): 1438.5 m/s | speed of sound (308.15 K, x2 = 0.1025): 1560 m/s | speed of sound (308.15 K, x2 = 0.1503): 1551.8 m/s | speed of sound (308.15 K, x2 = 0.3376): 1519.5 m/s | speed of sound (308.15 K, x2 = 0.4502): 1499.9 m/s | speed of sound (308.15 K, x2 = 0.5654): 1479.6 m/s | speed of sound (308.15 K, x2 = 0.6527): 1464.2 m/s | speed of sound (308.15 K, x2 = 0.7421): 1448.2 m/s | speed of sound (308.15 K, x2 = 0.8295): 1434.6 m/s | speed of sound (308.15 K, x2 = 0.8622): 1430.7 m/s | speed of sound (308.15 K, x2 = 0.9019): 1426.6 m/s | speed of sound (308.15 K, x2 = 0.9495): 1423 m/s | speed of sound (313.15 K, x2 = 0): 1585.4 m/s | speed of sound (313.15 K, x2 = 0.0494): 1553.7 m/s | speed of sound (313.15 K, x2 = 0.1025): 1545.1 m/s | speed of sound (313.15 K, x2 = 0.1503): 1537.3 m/s | speed of sound (313.15 K, x2 = 0.2215): 1525.6 m/s | speed of sound (313.15 K, x2 = 0.3376): 1506.3 m/s | speed of sound (313.15 K, x2 = 0.6527): 1452.3 m/s | speed of sound (313.15 K, x2 = 0.7421): 1436.5 m/s | speed of sound (313.15 K, x2 = 0.8295): 1422.9 m/s | speed of sound (313.15 K, x2 = 0.9019): 1414.8 m/s | speed of sound (313.15 K, x2 = 0.9495): 1411.2 m/s | speed of sound (318.15 K, x2 = 0): 1569.4 m/s | speed of sound (318.15 K, x2 = 0.0494): 1538.4 m/s | speed of sound (318.15 K, x2 = 0.1025): 1530.3 m/s | speed of sound (318.15 K, x2 = 0.1503): 1522.9 m/s | speed of sound (318.15 K, x2 = 0.2215): 1511.8 m/s | speed of sound (318.15 K, x2 = 0.3376): 1493.2 m/s | speed of sound (318.15 K, x2 = 0.4502): 1474.8 m/s | speed of sound (318.15 K, x2 = 0.5654): 1455.4 m/s | speed of sound (318.15 K, x2 = 0.6527): 1440.5 m/s | speed of sound (318.15 K, x2 = 0.7421): 1424.8 m/s | speed of sound (318.15 K, x2 = 0.8622): 1407.5 m/s | speed of sound (318.15 K, x2 = 0.9019): 1403.3 m/s | speed of sound (318.15 K, x2 = 0.9495): 1399.6 m/s | speed of sound (323.15 K, x2 = 0.0494): 1523.2 m/s | speed of sound (323.15 K, x2 = 0.1503): 1508.6 m/s | speed of sound (323.15 K, x2 = 0.2215): 1498 m/s | speed of sound (323.15 K, x2 = 0.3376): 1480.2 m/s | speed of sound (323.15 K, x2 = 0.4502): 1462.4 m/s | speed of sound (323.15 K, x2 = 0.5654): 1443.5 m/s | speed of sound (323.15 K, x2 = 0.6527): 1428.8 m/s | speed of sound (323.15 K, x2 = 0.7421): 1413.4 m/s | speed of sound (323.15 K, x2 = 0.8622): 1396.1 m/s | speed of sound (323.15 K, x2 = 0.9019): 1391.9 m/s

CCCC[n+]1ccn(C)c1.F[P-](F)(F)(F)(F)F + O=C1CCCN1
speed of sound (303.15 K, x1 = 1): 1431.7 m/s | speed of sound (308.15 K, x1 = 1): 1419.8 m/s | speed of sound (313.15 K, x1 = 1): 1408.2 m/s | speed of sound (318.15 K, x1 = 1): 1396.8 m/s | speed of sound (323.15 K, x1 = 1): 1385.6 m/s
